Test results published in ChEMBL document CHEMBL5331134, “Identification of Brain-Penetrant ATP-Competitive mTOR Inhibitors for CNS Syndromes” (J Med Chem, 2023).

Assay: Bioavailability in Beagle dog at 1 mg/kg, po and 0.3 mg/kg, iv measured upto 24 hrs by LC/MS/MS analysis
Type: ADME, organism-based, Canis lupus familiaris
Settings: in vivo

bioavailability: 11%
Compound: C[C@@H]1COCCN1c1cc(N2CCOC[C@@H]2C)nc2[nH]c(-c3ccccn3)nc12
